Measurements from patent US6352958B1, “Cycloimido-substituted benzofused heterocyclic herbicides” (FMC Corporation, priority 1997, dated 2002).

Columns and labels:
Type in all cases: in vivo
[1] = test system: soybean (Glycine max var. Winchester); assay: Preemergence herbicidal activity, soybean; conditions: Rate of Application 0.3 Kg/Ha, examined after 12-17 days
[2] = test system: wheat (Triticum aestivum var. Lew); assay: Preemergence herbicidal activity, wheat; conditions: Rate of Application 0.3 Kg/Ha, examined after 12-17 days
[3] = test system: field corn (Zea mays var. Pioneer 3732); assay: Preemergence herbicidal activity, corn; conditions: Rate of Application 0.3 Kg/Ha, examined after 12-17 days
[4] = test system: velvetleaf (Abutilon theophrasti); assay: Preemergence herbicidal activity, velvetleaf; conditions: Rate of Application 0.3 Kg/Ha, examined after 12-17 days
[5] = test system: morningglory (Ipomea lacunosa or Ipomea hederacea); assay: Preemergence herbicidal activity, morningglory; conditions: Rate of Application 0.3 Kg/Ha, examined after 12-17 days
[6] = test system: common cocklebur (Xanthium strumarium L.); assay: Preemergence herbicidal activity, cocklebur; conditions: Rate of Application 0.3 Kg/Ha, examined after 12-17 days
[7] = test system: blackgrass (Aloepecurus myosuroides); assay: Preemergence herbicidal activity, blackgrass; conditions: Rate of Application 0.3 Kg/Ha, examined after 12-17 days
[8] = test system: green foxtail (Setaria viridis); assay: Preemergence herbicidal activity, green foxtail; conditions: Rate of Application 0.3 Kg/Ha, examined after 12-17 days
[9] = test system: Johnsongrass (Sorghum halepense); assay: Preemergence herbicidal activity, johnsongrass; conditions: Rate of Application 0.3 Kg/Ha, examined after 12-17 days
[10] = test system: soybean (Glycine max var. Winchester); assay: Postemergence herbicidal activity, soybean; conditions: rate of application 0.3 Kg/Ha, rated after 12-17 days
[11] = test system: wheat (Triticum aestivum var. Lew); assay: Postemergence herbicidal activity, wheat; conditions: rate of application 0.3 Kg/Ha, rated after 12-17 days
[12] = test system: field corn (Zea mays var. Pioneer 3732); assay: Postemergence herbicidal activity, corn; conditions: rate of application 0.3 Kg/Ha, rated after 12-17 days
[13] = test system: velvetleaf (Abutilon theophrasti); assay: Postemergence herbicidal activity, velvetleaf; conditions: rate of application 0.3 Kg/Ha, rated after 12-17 days
[14] = test system: morningglory (Ipomea lacunosa or Ipomea hederacea); assay: Postemergence herbicidal activity, morningglory; conditions: rate of application 0.3 Kg/Ha, rated after 12-17 days
[15] = test system: blackgrass (Aloepecurus myosuroides); assay: Postemergence herbicidal activity, blackgrass; conditions: rate of application 0.3 Kg/Ha, rated after 12-17 days
Procedure: The benzofused heterocyclic compounds of this invention were tested for pre- and postemergence herbicidal activity using a variety of crops and weeds. The test plants included soybean (Glycine max var. Winchester), field corn (Zea mays var. Pioneer 3732), wheat (Triticum aestivum var. Lew), morningglory (Ipomea lacunosa or Ipomea hederacea), velvetleaf (Abutilon theophrasti), green foxtail (Setaria viridis), Johnsongrass (Sorghum halepense), blackgrass (Aloepecurus myosuroides), common chickweed (Stellaria media), and common cocklebur (Xanthium strumarium L.).
For preemergence testing, two disposable fiber flats (8 cm×15 cm×25 cm) for each rate of application of each candidate herbicide were filled to an approximate depth of 6.5 cm with steam-sterilized sandy loam soil. The soil was leveled and impressed with a template to provide five evenly spaced furrows 13 cm long and 0.5 cm deep in each flat. Seeds of soybean, wheat, corn, green foxtail, and johnsongrass were planted in the furrows of the first flat, and seeds of velvetleaf, morningglory, common chickweed, cocklebur, and blackgrass were planted in the furrows of the second flat. The five-row template was employed to firmly press the seeds into place. A topping soil of equal portions of sand and sandy loam soil was placed uniformly on top of each flat to a depth of approximately 0.5 cm. Flats for postemergence testing were prepared in the same manner except that they were planted 9-14 days prior to the preemergence flats and were placed in a greenhouse and watered, thus allowing the seeds to germinate and the foliage to develop.
In both pre- and postemergence tests, a stock solution of the candidate herbicide was prepared by dissolving 0.27 g of the compound in 20 mL of water/acetone (50/50) containing 0.5% v/v sorbitan monolaurate. For an application rate of 3000 g/ha of herbicide a 10 mL portion of the stock solution was diluted with water/acetone (50/50) to 45 mL.
The preemergence flats were initially subjected to a light water spray. The four flats were placed two by two along a conveyor belt (i.e., the two preemergence followed by the two postemergence flats). The conveyor belt fed under a spray nozzle mounted about ten inches above the post-emergent foliage. The preemergent flats were elevated on the belt so that the soil surface was at the same level below the spray nozzle as the foliage canopy of the postemergent plants. The spray of herbicidal solution was commenced and once stabilized, the flats were passed under the spray at a speed to receive a coverage equivalent of 100 L/ha. At this coverage the application rates are those shown in the above table for the individual herbicidal solutions. The preemergence flats were watered immediately thereafter, placed in the greenhouse and watered regularly at the soil surface. The postemergence flats were immediately placed in the green-house and not watered until 24 hours after treatment with the test solution. Thereafter they were regularly watered at ground level. After 12-17 days the plants were examined and the phytotoxicity data were recorded.
Phytotoxicity data were taken as percent control. Percent control was determined by a method similar to the 0 to 100 rating system disclosed in “Research Methods in Weed Science,” 2nd ed., B. Truelove, Ed.; Southern Weed Science Society; Auburn University, Auburn, Ala., 1977.

[16] = test system: green foxtail (Setaria viridis); assay: Postemergence herbicidal activity, green foxtail; conditions: rate of application 0.3 Kg/Ha, rated after 12-17 days
[17] = test system: Johnsongrass (Sorghum halepense); assay: Postemergence herbicidal activity, johnsongrass; conditions: rate of application 0.3 Kg/Ha, rated after 12-17 days
[18] = test system: common cocklebur (Xanthium strumarium L.); assay: Postemergence herbicidal activity, cocklebur; conditions: rate of application 0.3 Kg/Ha, rated after 12-17 days
[19] = test system: common chickweed (Stellaria media); assay: Preemergence herbicidal activity, chickweed; conditions: Rate of Application 0.3 Kg/Ha, examined after 12-17 days
[20] = test system: common chickweed (Stellaria media); assay: Postemergence herbicidal activity, chickweed; conditions: rate of application 0.3 Kg/Ha, rated after 12-17 days

Row | Structure (SMILES) | PREEMERGENCE HERBICIDAL ACTIVITY (% CONTROL) SOY [1] | PREEMERGENCE HERBICIDAL ACTIVITY (% CONTROL) WHT [2] | PREEMERGENCE HERBICIDAL ACTIVITY (% CONTROL) CRN [3] | PREEMERGENCE HERBICIDAL ACTIVITY (% CONTROL) ABUTH [4] | PREEMERGENCE HERBICIDAL ACTIVITY (% CONTROL) IPOSS [5] | PREEMERGENCE HERBICIDAL ACTIVITY (% CONTROL) XANPE [6] | PREEMERGENCE HERBICIDAL ACTIVITY (% CONTROL) ALOMY [7] | PREEMERGENCE HERBICIDAL ACTIVITY (% CONTROL) SETVI [8] | PREEMERGENCE HERBICIDAL ACTIVITY (% CONTROL) SORHA [9] | Postemergence herbicidal activity (% control) SOY [10] | Postemergence herbicidal activity (% control) WHT [11] | Postemergence herbicidal activity (% control) CRN [12] | Postemergence herbicidal activity (% control) ABUTH [13] | Postemergence herbicidal activity (% control) IPOSS [14] | Postemergence herbicidal activity (% control) ALOMY [15] | Postemergence herbicidal activity (% control) SETVI [16] | Postemergence herbicidal activity (% control) SORHA [17] | Postemergence herbicidal activity (% control) XANPE [18] | PREEMERGENCE HERBICIDAL ACTIVITY (% CONTROL) STEME [19] | Postemergence herbicidal activity (% control) STEME [20]
1 | CC(=O)OCc1nc2c(-n3c(=O)cc(C(F)(F)F)n(C)c3=O)c(F)cc(Br)c2o1 [Compound 101] | 80% | 70% | 100% | 100% | 100% | 80% | 80% | 100% | 100% | 95% | 50% | 80% | 100% | 100% | 60% | 65% | 65% | – | – | –
2 | Cn1c(C(F)(F)F)cc(=O)n(-c2c(F)cc(Br)c3oc(COc4ccc(Cl)cc4)nc23)c1=O [Compound 102] | 20% | 30% | 10% | 100% | 70% | 50% | 90% | 100% | 60% | 80% | 30% | 75% | 100% | 100% | 60% | 90% | 60% | – | – | –
3 | CC(=O)OC(c1ccccc1)c1nc2c(-n3c(=O)cc(C(F)(F)F)n(C)c3=O)c(F)cc(Br)c2o1 (centres unmarked) [Compound 103] | 50% | 50% | 80% | 100% | 100% | 70% | 90% | 100% | 70% | 90% | 50% | 80% | 100% | 80% | 70% | 100% | 60% | 80% | – | –
4 | C#CCOc1nc2c(-n3c(=O)cc(C(F)(F)F)n(C)c3=O)c(F)cc(Br)c2o1 [Compound 106] | 30% | 40% | 70% | 100% | 100% | 60% | 70% | 90% | 55% | 80% | 30% | 75% | 100% | 100% | 60% | 100% | 70% | – | 95% | –
5 | CC(=O)OC(C)(C)c1nc2c(-n3c(=O)cc(C(F)(F)F)n(C)c3=O)c(F)cc(Cl)c2[nH]1 [Compound 371] | 100% | 95% | 100% | 100% | 100% | 100% | 100% | 100% | 100% | 95% | 100% | 100% | 100% | 100% | – | 100% | 100% | 100% | 100% | 100%
6 | CC(c1ccccc1)c1nc2c(Cl)cc(F)c(-n3c(=O)cc(C(F)(F)F)n(C)c3=O)c2[nH]1 (centres unmarked) [Compound 377] | 100% | 70% | 90% | 100% | 100% | 100% | 100% | 100% | 100% | 95% | 80% | 100% | 100% | 100% | 100% | 100% | 100% | 100% | – | –
7 | Cn1c(C(F)(F)F)cc(=O)n(-c2c(F)cc(Cl)c3nc(CCc4ccccc4)[nH]c23)c1=O [Compound 379] | 100% | 50% | 70% | 100% | 100% | 100% | 80% | 100% | 95% | 95% | 80% | 100% | 100% | 100% | 70% | 100% | 100% | 100% | – | –
